Laboratory results as given in patent US3980794A, “Method for promoting growth of poultry with 3-(5-nitro-2-imidazolyl)pyrazoles” (Eli Lilly and Company, priority 1975, dated 1976).
Values after ≈ are worked out from the molar mass of the structure shown. Where two headings read alike, the source gives them in different places.

Columns and labels:
[1] = tested on: Bacteroides fragilis sp. vulgatus 1211; assay: Susceptibility of anaerobic bacteria, agar dilution; format: cell-based; details: 24 h, read-out: 24 Hr. Minimum Inhibitory Concentration
[2] = tested on: Propionibacterium acnes 44; assay: as above; format: cell-based; details: Cutibacterium acnes, 24 h; Propionibacterium acnes 44; read-out: 24 Hr. Minimum Inhibitory Concentration
[3] = tested on: Peptococcus anaerobius 1428; assay: as above; format: cell-based; details: 24 h, read-out: 24 Hr. Minimum Inhibitory Concentration
[4] = tested on: Propionibacterium acnes 79; assay: as above; format: cell-based; details: read-out: 24 Hr. Minimum Inhibitory Concentration
[5] = tested on: Clostridium innocuum 1373; assay: as above; format: cell-based; details: read-out: 24 Hr. Minimum Inhibitory Concentration
[6] = tested on: Clostridium perfringens 81; assay: microbe, parasite or virus in culture; format: cell-based; details: Clostridium perfringens, 81, 24 h, read-out: 24 Hr. Minimum Inhibitory Concentration
[7] = tested on: Bacteroides fragilis sp. thetaiotaomicron 1438; assay: Susceptibility of anaerobic bacteria, agar dilution; format: cell-based; details: 24 h, read-out: 24 Hr. Minimum Inhibitory Concentration
Salmonella typhimurium = assay: Control of infections caused by Salmonella typhimurium in chickens, subcutaneous (Experiment 2); format: in vivo; details: Salmonella enterica, sc, 144 h, 6 days, read-out: Survival Ratio (converted); for responders at 3.75 mg/kg: 3.75 mg./kg. subcutaneous; for responders at 7.5 mg/kg: 7.5 mg./kg. subcutaneous; for responders at 15 mg/kg: 15 mg./kg. subcutaneous; for responders at 30 mg/kg: 30 mg./kg. subcutaneous; for responders at 60 mg/kg: 60 mg./kg. subcutaneous
Method: The efficacy of the novel compounds in the control of infections caused by Salmonella typhimurium in chickens was evaluated in the following manner.
The test was carried out using day-old chicks weighing approximately 35 g. each. The chicks were divided into groups of 5 chicks per each dosage level. A portion of the chicks received the test compound which was suspended in 0.2 ml. of polyethylene glycol 200 and administered subcutanusly in the neck. […] All the chicks were challenged with a 1:200 dilution of a culture of the organism, 0.1 ml. of the dilution being injected into each chick in the leg intramuscularly. […] The test compounds are identified in the same manner as set forth in Experiment 1.
In the chart, column 1 lists the compounds tested; column 2, the dosage of test compound in mg./kg.; and column 3, the survival ratio.

[8] = tested on: Fusobacterium symbiosum 1470; assay: Susceptibility of anaerobic bacteria, agar dilution; format: cell-based; details: read-out: 24 Hr. Minimum Inhibitory Concentration
[9] = tested on: Bacteroides fragilis sp. fragilis 1877; assay: as above; format: cell-based; details: 24 h, read-out: 24 Hr. Minimum Inhibitory Concentration
Actinomyces bovis 13684 = assay: as above; format: cell-based; details: read-out: 24 Hr. Minimum Inhibitory Concentration
[10] = tested on: Bacteroides fragilis sp. fragilis 1936B; assay: as above; format: cell-based; details: 24 h, read-out: 24 Hr. Minimum Inhibitory Concentration
[11] = tested on: Bacteroides fragilis sp. vulgatus 1563; assay: as above; format: cell-based; details: 24 h, read-out: 24 Hr. Minimum Inhibitory Concentration
Clostridium ramosum 1313 = assay: as above; format: cell-based; details: read-out: 24 Hr. Minimum Inhibitory Concentration
[12] = tested on: Peptostreptococcus intermedius 1264; assay: as above; format: cell-based; details: 24 h; Peptostreptococcus intermedius 1264; read-out: 24 Hr. Minimum Inhibitory Concentration
[13] = tested on: Eubacterium aerofaciens 1235; assay: as above; format: cell-based; details: read-out: 24 Hr. Minimum Inhibitory Concentration
[14] = [Clostridium] innocuum, 1373, 24 h
[15] = Thomasclavelia ramosa, 1313, 24 h
[16] = Collinsella aerofaciens, 1235, 24 h
[17] = Bacteroides fragilis sp. vulgatus 1211
[18] = Cutibacterium acnes, 24 h, Propionibacterium acnes 79
[19] = 24 h, Clostridium innocuum 1373
[20] = Bacteroides fragilis sp. thetaiotaomicron 1438
[21] = 24 h, Fusobacterium symbiosum 1470
[22] = Bacteroides fragilis sp. fragilis 1877
[23] = Bacteroides fragilis sp. fragilis 1936B
[24] = Bacteroides fragilis sp. vulgatus 1563
[25] = Thomasclavelia ramosa, 24 h, Clostridium ramosum 1313
[26] = Collinsella aerofaciens, 24 h, Eubacterium aerofaciens 1235

Structure (SMILES) | MIC ([1]; Bacteroides fragilis) [µg/mL] | MIC [2] [µg/mL] | MIC [3] [µg/mL] | MIC ([4]; Cutibacterium acnes, 79, 24 h) [µg/mL] | MIC [5, 14] [µg/mL] | MIC [6] [µg/mL] | MIC ([7]; Bacteroides fragilis) [µg/mL] | responders at 3.75 mg/kg (Salmonella typhimurium) [%] | responders at 7.5 mg/kg (Salmonella typhimurium) [%] | responders at 15 mg/kg (Salmonella typhimurium) [%] | responders at 30 mg/kg (Salmonella typhimurium) [%] | responders at 60 mg/kg (Salmonella typhimurium) [%] | MIC ([8]; Fusobacterium, 1470, 24 h) [µg/mL] | MIC ([9]; Bacteroides fragilis) [µg/mL] | MIC (Actinomyces bovis 13684; Actinomyces bovis, 13684, 24 h) [µg/mL] | MIC ([10]; Bacteroides fragilis) [µg/mL] | MIC ([11]; Bacteroides fragilis) [µg/mL] | MIC (Clostridium ramosum 1313; [15]) [µg/mL] | MIC [12] [µg/mL] | MIC [13, 16] [µg/mL] | also measured
Cn1nc(-c2ncc([N+](=O)[O-])n2C)c(C#N)c1N [Compound 1, 5-Amino-1-methyl-3-(1-methyl-5-nitro-2-imidazolyl)pyrazole-4-carbonitrile] | < 0.125 | > 32 | < 0.125 | < 0.125 | < 0.125 | < 0.125 | < 0.125 | 44 | 62.9 | 72 | 54 | 67.1 | < 0.125 | < 0.125 | < 0.125 | < 0.125 | < 0.125 | < 0.125 | 0.5 (≈ 2.02 µM) | < 0.125 | –
Cn1nc(-c2ncc([N+](=O)[O-])n2C)c(C(N)=O)c1N [Compound 2, 5-Amino-1-methyl-3-(1-methyl-5-nitro-2-imidazolyl)pyrazole-4-carboxamide] | < 0.125 | 0.5 (≈ 1.89 µM) | < 0.125 | < 0.125 | < 0.125 | < 0.125 | < 0.125 | – | 0 | 40 | 44 | 46.7 | < 0.125 | < 0.125 | < 0.125 | < 0.125 | < 0.125 | < 0.125 | 1 (≈ 3.77 µM) | < 0.125 | –
COC=Nc1c(C#N)c(-c2ncc([N+](=O)[O-])n2C)nn1C [Compound 6, Methyl N-[4-cyano-1-methyl-3-(1-methyl-5-nitro-2-imidazolyl)pyrazol-5-yl]formimidate] | < 0.125 | > 32 | < 0.125 | < 0.125 | < 0.125 | < 0.125 | < 0.125 | 80 | 90 | 50 | 50 | 46.7 | < 0.125 | < 0.125 | < 0.125 | < 0.125 | < 0.125 | < 0.125 | 1 (≈ 3.46 µM) | < 0.125 | –
CCCCOC=Nc1c(C#N)c(-c2ncc([N+](=O)[O-])n2C)nn1C [Compound 7, Butyl N-[4-Cyano-1-methyl-3-(1-methyl-5-nitro-2-imidazolyl)-pyrazol-5-yl]formimidate] | < 0.125 | > 32 | < 0.125 | < 0.125 | < 0.125 | < 0.125 | < 0.125 | – | 0 | 55 | 40 | 55 | < 0.125 | < 0.125 | < 0.125 | < 0.125 | < 0.125 | < 0.125 | 2 (≈ 6.04 µM) | < 0.125 | –
CC(=O)Nc1c(C(=O)O)c(-c2ncc([N+](=O)[O-])n2C)nn1C [Compound 12, 5-acetamido-1-methyl-3-(1-methyl-5-nitro-2-imidazolyl)pyrazole-4-carboxylic acid] | – | > 32 | – | – | – | 8 (≈ 26 µM) | – | – | – | – | – | – | – | – | – | – | – | – | 32 (≈ 104 µM) | – | MIC [1, 17]: 2 µg/mL (≈ 6.49 µM); MIC ([3]; Peptococcus anaerobius 1428): 8 µg/mL (≈ 26 µM); MIC [4, 18]: 1 µg/mL (≈ 3.24 µM); MIC [5, 19]: 8 µg/mL (≈ 26 µM); MIC [7, 20]: 2 µg/mL (≈ 6.49 µM); MIC [8, 21]: < 0.125 µg/mL; MIC [9, 22]: 4 µg/mL (≈ 13 µM); MIC (Actinomyces bovis 13684; 24 h, Actinomyces bovis 13684): 0.5 µg/mL (≈ 1.62 µM); MIC [10, 23]: 16 µg/mL (≈ 51.9 µM); MIC [11, 24]: 1 µg/mL (≈ 3.24 µM); MIC (Clostridium ramosum 1313; [25]): 4 µg/mL (≈ 13 µM); MIC [13, 26]: 1 µg/mL (≈ 3.24 µM)
C=CCOC=Nc1c(C#N)c(-c2ncc([N+](=O)[O-])n2C)nn1C [Compound 13A, Allyl N-[4-cyano-1-methyl-3-(1-methyl-5-nitro-2-imidazolyl)pyrazol-5-yl]formimidate] | – | > 128 | – | – | – | 1 (≈ 3.17 µM) | – | 40 | 46.7 | 53.3 | 33.3 | 50 | – | – | – | – | – | – | 16 (≈ 50.7 µM) | – | MIC [1, 17]: < 0.125 µg/mL; MIC ([3]; Peptococcus anaerobius 1428): 2 µg/mL (≈ 6.34 µM); MIC [4, 18]: < 0.125 µg/mL; MIC [5, 19]: 1 µg/mL (≈ 3.17 µM); MIC [7, 20]: 0.25 µg/mL (≈ 0.793 µM); MIC [8, 21]: < 0.125 µg/mL; MIC [9, 22]: 0.5 µg/mL (≈ 1.59 µM); MIC (Actinomyces bovis 13684; 24 h, Actinomyces bovis 13684): 0.5 µg/mL (≈ 1.59 µM); MIC [10, 23]: 2 µg/mL (≈ 6.34 µM); MIC [11, 24]: 0.25 µg/mL (≈ 0.793 µM); MIC (Clostridium ramosum 1313; [25]): 4 µg/mL (≈ 12.7 µM); MIC [13, 26]: < 0.125 µg/mL
CCCCC(CC)COC=Nc1c(C#N)c(-c2ncc([N+](=O)[O-])n2C)nn1C (centres unmarked) [Compound 13D, 2-Ethylhexyl N-[4-cyano-1-methyl-3-(1-methyl-5-nitro-2-imidazolyl)pyrazol-5-yl]formimidate] | – | 16 (≈ 41.3 µM) | – | – | – | 1 (≈ 2.58 µM) | – | – | – | 10 | 10 | 33.3 | – | – | – | – | – | – | 16 (≈ 41.3 µM) | – | MIC [1, 17]: 1 µg/mL (≈ 2.58 µM); MIC ([3]; Peptococcus anaerobius 1428): 2 µg/mL (≈ 5.16 µM); MIC [4, 18]: 2 µg/mL (≈ 5.16 µM); MIC [5, 19]: 1 µg/mL (≈ 2.58 µM); MIC [7, 20]: 1 µg/mL (≈ 2.58 µM); MIC [8, 21]: 1 µg/mL (≈ 2.58 µM); MIC [9, 22]: 2 µg/mL (≈ 5.16 µM); MIC (Actinomyces bovis 13684; 24 h, Actinomyces bovis 13684): 1 µg/mL (≈ 2.58 µM); MIC [10, 23]: 0.5 µg/mL (≈ 1.29 µM); MIC [11, 24]: 0.5 µg/mL (≈ 1.29 µM); MIC (Clostridium ramosum 1313; [25]): 1 µg/mL (≈ 2.58 µM); MIC [13, 26]: 2 µg/mL (≈ 5.16 µM)
